# Residues, ends and D or L forms follow the SMILES beside them. *: point of attachment. Cbz = O=C(OCc1ccccc1)*
row,melting point [°C],Compound
1,291 to 296,CN(C)C=Nc1ccc2nnc(-c3ccc([N+](=O)[O-])o3)n2n1
2,245 to 247,CCN(c1ccc(C(=O)Nc2cn3cc(Cl)ccc3n2)cc1)S(C)(=O)=O
3,178 to 180,Cc1ccccc1-n1c(C)nc2c(c1=O)N(Cc1ccccc1)NN2
4,96 to 98,COC(=O)c1c(Cl)cc(Cl)cc1NC(=O)CSc1ccc(NCc2ccc(Cl)cc2)cc1
5,128 to 129,CCc1cccc(C(O)CCc2ccccc2)c1NC(=O)CC1c2ccccc2Oc2ccccc21 (centres undefined)
6,80 to 83,CCOc1c(C)c(N2CCN(c3ccc(OC)c(C)c3)CC2)c(C)c2c1OC(C)C2 (centres undefined)
7,56 to 60,C=CCOC1=NC(OCC)=NS(=O)(=O)N1C
8,161 to 162,CC(C)n1c(CCN2CCN(c3cccc(C(F)(F)F)c3)CC2)nc2cc(Br)c3ccccc3c21
9,82.5 to 84.9,CCCCCN(CCC12CC3CC(CC(C3)C1)C2)C(=O)NCC(C)(C)Cc1ccncc1
10,193 to 196,CC(C)[C@H](NC(=O)N(C)Cc1cccnc1)C(=O)N[C@@H](Cc1ccccc1)C[C@H](O)[C@H](Cc1ccccc1)NC(=O)[C@@H](NC(=O)N(C)Cc1cccnc1)C(C)C
11,181 to 182,Cc1ccccc1C(=O)Nc1ccc(C(=O)N2CCCCc3sccc32)cc1
12,186 to 190,CN1C(=O)C(c2ccc(OC(F)F)cc2)(c2cccc(C3CC(O)C3)c2)N=C1N (centres undefined)
13,141 to 143,Nc1ccc2c(OCc3nc4ccccc4s3)cccc2c1
14,105,CCc1cccc(NC(=O)NCC(=O)N(CC(=O)N(C)c2ccccc2)c2ccccc2)c1
15,128 to 130,C#CCOc1cc(NC(=O)CC(CC(=O)O)C(F)(F)F)ccc1Cl (centres undefined)
16,137 to 138,C=CCOc1ccc2c(c1)C(=O)NC(C)(C)O2
17,77.5,CC#CCOc1cc(N(C)c2cccc(F)c2F)ncn1
18,118 to 120,O=S(=O)(Nc1ccccc1O)c1cc(S(=O)(=O)Nc2ccccc2O)c2cc(O)ccc2c1
19,205 to 207,CC(C)(C)OC(=O)N[C@@H]1CCCC[C@H]1OCC(=O)O (relative stereo)
20,108 to 110,COCCN1CC(=O)C(C#N)=C1C#N
21,248 to 250,COc1cc2nc(N)nc(-c3ccc(Cl)cc3)c2cc1OC
22,208 to 210,COC(=O)C(=C\c1c(OC)cc(OC)cc1OC)/C(=C\c1ccccc1)C(=O)O

row,melting point [°C],Compound
1,124 to 125,C[C@H](NC(=O)OCc1ccccc1)C(=O)N1CCC[C@H]1C(=O)O (Cbz-Ala-Pro-OH)
2,236 to 237,CN(CCF)c1nc2cc(NC(=O)c3c(C(=O)N4CCC4)cnn3C)ccn2n1
3,160 to 162,Cc1c(NC(=O)c2ccc(-c3ccc(Cl)s3)cc2F)ccc2cc(CN3CCCC3)cnc12
4,> 325,CSc1cnc2cc(-c3ccccc3)sc2c1O
5,192 to 193,COC(=O)C(c1ccc(Cl)cc1)c1c2ccccc2nc2ccccc12 (centres undefined)
6,232 to 234,CCS(=O)(=O)N1CCN(c2ccc(NC(=O)c3cc(=O)c4cc(OC)cc(N5CCN(C)CC5)c4o3)cc2)CC1
7,203 to 204,COC(=O)CCc1cc(S(C)(=O)=O)cc(-c2nc(=O)c3ccc(Cl)cc3s2)n1
8,163 to 164,CCOC(=O)c1c(Cn2ccnc2CC)nc2cc(OC)c(OC)cc2c1-c1ccc(OC)c(OC)c1
9,120 to 123,NS(=O)(=O)c1ccc(-c2cnn(Cc3ccccc3)c(=O)c2Cc2ccc(F)cc2)cc1
10,85 to 86,CCOC(=O)c1c(C)cc2cnc(-c3ccccc3)nc2c1C
11,97,CNC(=O)[C@@H]1C[C@@H](Oc2ccccc2)CN1S(=O)(=O)c1ccc(Cl)c(COc2cccc3c(-n4ccnc4)cc(C)nc23)c1Cl
12,> 270,CS(=O)(=O)Nn1c(=O)[nH]c2cc([N+](=O)[O-])c(-n3ccnc3)cc2c1=O
13,68 to 71,COc1ccc2c(c1)CCC(=Cc1ccc(OCCCN(C)C)cc1)C2=O
14,197 to 199,CCNC(=O)Nc1cc(F)cc2c1OCCC21SC(=O)NC1=O (centres undefined)
15,110,O=[N+]([O-])c1cc(-c2cnc3ccccn23)cc(O)c1O
16,198,CC(=O)C1C(=O)N(C(=O)NC(=O)c2ccccc2)c2ccccc21 (centres undefined)
17,149,COc1cncc(-c2cc(=S)ss2)n1
18,143 to 144,CC1=C(C(=O)OCCCN(C)Cc2ccccc2)C(c2ccccc2C(F)(F)F)c2c(ccnc2OC(C)C)N1 (centres undefined)
19,131 to 132,Cc1c(C)c2c(c(C)c1N)C(c1ccccc1)C(C)(C)O2 (centres undefined)
20,122,CCN(C(=O)Cc1c(F)cccc1F)C(c1cnccc1C(F)(F)F)C(C)C (centres undefined)
21,130 to 132,CCOC(=O)C1=Cc2cc(OCC(=O)c3ccc(Br)cc3)ccc2OC1C(F)(F)F (centres undefined)
22,206,O=C(CC(=O)c1cccc(C(F)(F)F)c1NC(=O)C(F)F)Nc1nccs1

row,melting point [°C],Compound
1,97.9 to 99.3,COc1ccc(NCCNC(=O)c2ccc(OCC=C(C)CCC=C(C)C)cc2)cn1
2,59 to 63,CN(C)C(=O)n1ccc(-c2ccc(Oc3ccc(F)cc3)cc2)n1
3,208 to 209,CNS(=O)(=O)c1cc2c(c(C(=O)O)c1)OCCO2
4,63 to 64,c1ccc(-c2nc(COc3cccc(CCCn4ccnc4)c3)cs2)cc1
5,212,CNC(=O)C(NC(=O)c1ccc(F)cc1C(F)(F)F)C(O)C(F)(F)F (centres undefined)
6,111 to 117,CC(=O)OC(C(Oc1ccc(Cl)cc1)n1cncn1)C(C)(C)CCl (centres undefined)
7,105 to 106,O=Cc1c(C#Cc2ccccc2)sc2ccccc12
8,211,NS(=O)(=O)c1cccc(-c2cc(-c3nc(-c4ccc(C(F)(F)F)c(OCC(F)(F)F)c4)cc(C(F)(F)F)n3)ccn2)c1
9,125 to 126,CC(C(O)C(C)(C)Cc1ccc(OC(F)(F)F)cc1)n1ncnc1S (centres undefined)
10,168 to 170,N#CC(=C1CCCN1)c1ccc(-c2ccccc2)cc1
11,217 to 220,CS(=O)(=O)Nc1ccc([N+](=O)[O-])cn1
12,100 to 102,CC1(C)C2CC[C@]1(C)C(=O)C(C(=O)Nc1cccc([N+](=O)[O-])c1)C2=O (some centres undefined)
13,113,CC(C)CCn1c(CN2C(=O)N(C3CC3)Cc3ccccc32)nc2cc(CN)ccc21
14,192 to 194,CCc1cn(C2CC(O)(c3ccc(C)cc3)C(C(O)c3ccc(C)cc3)O2)c(=O)[nH]c1=O (centres undefined)
15,157 to 158,O=C1CC(c2ccccc2)CN1C(=O)c1ccc(Cl)cc1 (centres undefined)
16,216 to 218,NS(=O)(=O)c1cc2cnccc2o1
17,104 to 106,NC1=CC([N+](=O)[O-])C(N)(CC(F)(F)F)C=C1 (centres undefined)
18,125 to 133,O=C(O)Cc1cc(Cl)cc(Cl)c1Cl
19,180 to 182,NCc1c(Cc2ccccc2)nc2ccc(OCC(N)=O)cc2c1-c1ccccc1
20,127,COC(=O)c1cc(S(C)(=O)=O)c(S(F)(F)(F)(F)F)cc1C
21,196,Cc1c(-c2ccc(NC(=O)OCC(C)C)cc2)nc2n1CCc1ccccc1C2OC1CCN(C)CC1 (centres undefined)
22,311 to 319,Cc1nc2c3c(c(C(N)=O)cc2n1C)CCC(c1ccccc1)N3 (centres undefined)

row,melting point [°C],Compound
1,47 to 49,CCOC(=O)CC(=O)c1cc(F)c(F)c(F)c1F
2,117 to 118,FC(F)(F)c1cccc(-c2ccn3nccc3n2)c1
3,194 to 196,COc1c(N2CC3CC3(CN)C2)c(F)cc2c(=O)c(C(=O)O)cn(C3CC3)c12 (centres undefined)
4,158 to 161,O=C(COc1ccc(NC(=O)OCCO)cc1)OCCOC(=O)COc1ccc(NC(=O)OCCO)cc1
5,168 to 172,CCc1cn(C2CC(O)C(COC(c3ccccc3)(c3ccccc3)c3ccccc3)O2)c(=O)[nH]c1=O (centres undefined)
6,75 to 77,COc1cccc(C23CCCC2C(=O)N(Cc2ccccc2)C(=O)C3)c1 (centres undefined)
7,72 to 74,COc1cccc(SCCC(=O)O)c1F
8,214 to 220,COc1cc2cc(CO)c(CO)c(-c3ccnc(NN)c3)c2cc1OC
9,125 to 126,O=C(c1cccnc1)N1CCC(c2ccc(Cl)cc2)=N1
10,204 to 207,COc1cn(-c2ccc(N3CC=CC3)cc2F)nc(-c2ccnn2-c2ccccc2)c1=O
11,289 to 291,CS(=O)(=O)c1ccc(-c2c(-c3ccc(F)cc3)nn3c(-c4ccc(F)cc4)coc23)cc1
12,97,Cc1nc(C(=O)c2ccc(Cl)cc2)sc1C
13,178 to 180,Cc1ccc2c(c1)N(CC(=O)c1ccccc1C)C(=O)C(NC(=O)Nc1ccc(Cl)c(C(=O)O)c1)CN2C(=O)C(C)(C)C (centres undefined)
14,118 to 119,COC(=O)Cc1cn(Cc2ccccc2)nc1O
15,162 to 164,CCN(CC)c1ccc(C2(c3ccc(N(CC)CC)cc3N(CC)CC)OC(=O)c3c(Cl)c(Cl)c(Cl)c(Cl)c32)c(C)c1 (centres undefined)
16,305 to 306,Oc1ccc(-c2cc3ccc(O)cc3s2)cc1
17,> 330,O=C1Cc2c([nH]c3ccc([N+](=O)[O-])cc23)-c2cc(Br)ccc2N1
18,235 to 237,Oc1ccc2c(c1)COc1c-2cc2ccc(O)cc2c1-c1ccc(F)c(F)c1
19,148 to 150,CN1CCCC1=NC(=O)Nc1cc(Cl)ccc1Cl
20,208 to 210,O=C(O)/C=C/C=C/C=C/C1=Cc2cc(C(F)(F)F)ccc2OC1
21,191 to 193,CC(C)(NC(=O)c1nnc2ccc(NCCCN3CCC(OC(c4ccccc4)c4ccccc4)CC3)nn12)C(=O)O

row,Compound,melting point [°C]
1,CNC1C(O)C(OC2C(N)CC(N)C(OC3OC(C(C)O)C(O)C(O)C3N)C2O)OCC1(C)O (centres undefined),65
2,C#Cc1ccc2c(c1)C(c1ccccc1F)=NCc1c(C(=O)NC)ncn1-2,235 to 236
3,COC(=O)/C=C/c1ccc(CC(C)NCC(O)c2ccccc2F)cc1 (centres undefined),111 to 116
4,CN1CCN(c2cc3nc(C(C)(C)C)sc3cc2[N+](=O)[O-])CC1,132 to 135
5,COc1cccc2c1C13CCN(CC4CC4)C(C2)C1(O)CCC(=O)C3 (centres undefined),133 to 135
6,CC(=O)NC[C@H]1CN(c2ccc(N3CCC(C#N)(Nc4ccccc4)CC3)c(F)c2)C(=O)O1,81 to 85
7,CC(C)CCN1C(=O)C(N)C(=O)N(c2ccccc2F)c2ccccc21 (centres undefined),125 to 160
